From patent US4087461A, “Anti-androgenic steroids” (The Johns Hopkins University, priority 1977, dated 1978) come the findings set out here.

Molecules are shown by their SMILES.

Experiment [1] has as its system competition with testosterone at the target tissue. Nature of the experiment: study in castrate rats receiving testosterone propionate: prostatic weight. Type of experiment: in vivo, male Sprague-Dawley rats (castrated). Conditions: estryne 12mg/kg i.p. and testosterone propionate 0.3mg daily for seven days; castrated 10 days prior. As for the experimental part:
To determine if the estryne competes with testosterone at the target tissue rats were orchiectomized under ether anesthesia via the scrotal route 10 days prior to treatment. Testosterone propionate 0.3 mg (0.2 ml sesame oil) was administered daily for 7 days subcutaneously. Estryne 12 mg/kg (0.2 ml propylene glycol) was given daily for 7 days interperitioneally. Control groups received either testosterone propionate (0.3 mg) or carrier oil daily for 7 days. The animals were sacrificed on the eighth day and the organs were weighed.
Animals castrated 10 days prior to treatment received both estryne (12mg/kg weight) and testosterone propionate (0.3mg) daily for seven days.

Experiment [2] has as its system androgen biosynthesis stimulated by human chorionic gonadotropin. Nature of the experiment: study in hypophysectomized rats stimulated with human chorionic gonadotropin: ventral prostate weight. Type of experiment: in vivo, hypophysectomized male Sprague-Dawley rats. As for the experimental part:
In order to assess the action of the estryne in the presence of exogenous stimulation of androgen synthesis, hypophysectomized male rats received estryne 3.0 mg (0.2 ml sesame oil) sc and/or human chorionic gonadotropin 2 units and 4 units (0.9% saline) sc daily for 7 days. Sacrifice and weighing of the organs was performed on the eighth day.
The wet weight of the ventral prostate was decreased (20-25%) in hypophysectomized animal receiving estryne (12mg/kg body weight) and HGG (2 units) as compared to controls receiving just HGG (2 units).

The next experiment relates to immature uterus. Nature of the experiment: study of estrogenic activity (uterine weight of immature mice). Conditions: 100 μg total dose over three days, sc.

Method for immature uterus: The animals were housed in a temperature controlled room under a constant lighting schedule and maintained on a diet of Charles River Rat Formula and water ad libitum. The diet of the hypophy-sectomized animals was supplemented with organges.
On the fourth day the uteri were removed and weighed.
Thus, immature female mice received estryne at doses up to a maximum of 100 μg total dose over three days, and the wet weight of the uteri were determined.

Turning to `C[C@]12CC[C@@H]3C(=O)CCC(=O)CC#CC[C@H]3[C@@H]1CCC2=O` [Compound 1, 5,10-secoestr-5-yne-3,10,17-trione], in experiment [1], the “depression of prostatic weight” value is recorded as “No significant depression of prostatic weight”. The “decrease in wet weight of the ventral prostate” value in experiment [2] (estryne 12mg/kg body weight and HCG 2 units, vs controls receiving HCG 2 units only, 7 days) is listed as 20-25%. In addition, the “effect on ventral prostate weight at higher doses of HCG” value in experiment [2] (higher doses of HCG, in words) was “less pronounced”. The “stimulation of the immature uterus” value in the experiment with immature uterus is reported as “no stimulation of the immature uterus”.
